# According to patent US20250263370A1 (Tay Therapeutics Limited, priority 2022, published 2025):
# Values joined by “and” are separate entries in the source; they are usually repeats but may differ in a detail not shown here. Equal values may be shown once. “Also recorded” adds a separate entry of the source.
# Tested on: collagen-induced arthritis
# Assay: Collagen-induced arthritis (CIA) model in rats: body weight, paw volume, clinical scores, clinical observations
# Conditions: CIA rats
# [1] = 3 mg/kg twice daily P.O. (group 5)
# [2] = 3 mg/kg twice daily P.O. (group 5), day 13
# [3] = 3 mg/kg twice daily P.O. (group 5), day 14
# [4] = 3 mg/kg twice daily P.O. (group 5), days 18, 19 and 21
# [5] = 10 mg/kg twice daily P.O. (group 6)
# [6] = 10 mg/kg twice daily P.O. (group 6), day 12
# [7] = 10 mg/kg twice daily P.O. (group 6), day 14
smiles,measurement,setting,value
"CNC(=O)c1[nH]c(C(=O)NC2CCC2)cc1O[C@@H](C)c1ccccc1 (stereo in doubt) [Example 101, N^5-cyclobutyl-N^2-methyl-3-(1-phenylethoxy)-1H-pyrrole-2,5-dicarboxamide]",day on which paw volume noticeably increased,[1],~14 days
same,effect on hind paw volume,[1],less effective at preventing an increase in paw volume over the course of the study; also recorded: performed similarly to GSK620
same,average overall clinical score at plateau,"3 mg/kg twice daily P.O. (group 5), around day 18",10
same,animals exhibiting signs of disease,"3 mg/kg twice daily P.O. (group 5), day 12",Three animals
same,animals exhibiting disease,[2],5/8
same,animals with a clinical score of 2 in one hind limb,[2],1/8
same,animals exhibiting disease,[3],all animals
same,animals with clinical scores of at least 2 in one or more hind limbs,[3],2/8
same,animals with a score of 4 in one hind limb and a score of 3 in the other hind limb,[4],2/8
same,animals with scores of 4 in each hind limb,[4],6/8
same,paw volume increase at plateau relative to day 0,"3 mg/kg twice daily P.O. (group 5), plateau at days 18-19",approximately 90%
same,Average animal paw volume percent change,"3 mg/kg, Day 0, left hind paw (L)",0.00%
same,Animal paw volume Day 0 L,"3 mg/kg, Day 0, left paw, individual animals",1.36 mL and 1.31 mL (2×) and 1.32 mL (2×) and 1.35 mL and 1.37 mL and 1.34 mL
same,Average animal paw volume percent change,"3 mg/kg, Day 0, right hind paw (R)",0.00%
same,Animal paw volume Day 0 R,"3 mg/kg, Day 0, right paw, individual animals",1.38 mL and 1.32 mL (2×) and 1.34 mL (3×) and 1.31 mL and 1.35 mL
same,Average animal paw volume percent change,"3 mg/kg, Day 6, left hind paw (L)",1.09%
same,Animal paw volume Day 6 L,"3 mg/kg, Day 6, left paw, individual animals",1.36 mL (2×) and 1.32 mL (2×) and 1.40 mL and 1.31 mL and 1.37 mL and 1.35 mL
same,Average animal paw volume percent change,"3 mg/kg, Day 6, right hind paw (R)",1.23%
same,Animal paw volume Day 6 R,"3 mg/kg, Day 6, right paw, individual animals",1.38 mL and 1.33 mL and 1.35 mL and 1.40 mL and 1.36 mL (2×) and 1.32 mL and 1.34 mL
same,Average animal paw volume percent change,"3 mg/kg, Day 12, left hind paw (L)",5.80%
same,Animal paw volume Day 12 L,"3 mg/kg, Day 12, left paw, individual animals",1.38 mL and 1.32 mL and 1.39 mL (3×) and 1.42 mL and 1.37 mL and 1.63 mL
same,Average animal paw volume percent change,"3 mg/kg, Day 12, right hind paw (R)",5.01%
same,Animal paw volume Day 12 R,"3 mg/kg, Day 12, right paw, individual animals",1.40 mL and 1.43 mL and 1.38 mL (2×) and 1.46 mL and 1.44 mL and 1.36 mL and 1.39 mL
same,Average animal paw volume percent change,"3 mg/kg, Day 13, left hind paw (L)",15.11%
same,Animal paw volume Day 13 L,"3 mg/kg, Day 13, left paw, individual animals",1.62 mL and 1.53 mL and 1.50 mL and 1.54 mL and 1.38 mL and 1.86 mL and 1.43 mL and 1.41 mL
same,Average animal paw volume percent change,"3 mg/kg, Day 13, right hind paw (R)",9.28%
same,Animal paw volume Day 13 R,"3 mg/kg, Day 13, right paw, individual animals",1.42 mL (2×) and 1.50 mL and 1.41 mL and 1.47 mL and 1.40 mL and 1.68 mL and 1.39 mL
same,Average animal paw volume percent change,"3 mg/kg, Day 14, left hind paw (L)",27.04%
same,Animal paw volume Day 14 L,"3 mg/kg, Day 14, left paw, individual animals",1.67 mL and 1.68 mL (2×) and 1.64 mL and 1.59 mL and 2.01 mL and 1.63 mL (2×)
same,Average animal paw volume percent change,"3 mg/kg, Day 14, right hind paw (R)",19.52%
same,Animal paw volume Day 14 R,"3 mg/kg, Day 14, right paw, individual animals",1.57 mL and 1.52 mL and 1.41 mL and 1.87 mL and 1.50 mL and 2.04 mL and 1.43 mL (2×)
same,Average animal paw volume percent change,"3 mg/kg, Day 15, left hind paw (L)",39.96%
same,Animal paw volume Day 15 L,"3 mg/kg, Day 15, left paw, individual animals",1.72 mL and 1.70 mL and 1.91 mL and 1.65 mL and 2.44 mL and 2.06 mL and 1.74 mL and 1.68 mL
same,Average animal paw volume percent change,"3 mg/kg, Day 15, right hind paw (R)",43.85%
same,Animal paw volume Day 15 R,"3 mg/kg, Day 15, right paw, individual animals",1.66 mL and 1.62 mL and 2.31 mL and 1.71 mL and 2.41 mL and 2.02 mL and 1.99 mL and 1.64 mL
same,Average animal paw volume percent change,"3 mg/kg, Day 18, left hind paw (L)",87.19%
same,Animal paw volume Day 18 L,"3 mg/kg, Day 18, left paw, individual animals",2.40 mL and 2.65 mL and 2.62 mL and 2.44 mL (2×) and 2.70 mL and 2.47 mL and 2.22 mL
same,Average animal paw volume percent change,"3 mg/kg, Day 18, right hind paw (R)",89.41%
same,Animal paw volume Day 18 R,"3 mg/kg, Day 18, right paw, individual animals",2.21 mL and 2.56 mL and 2.65 mL and 2.37 mL and 2.70 mL and 2.55 mL and 2.50 mL and 2.71 mL
same,Average animal paw volume percent change,"3 mg/kg, Day 19, left hind paw (L)",98.39%
same,Animal paw volume Day 19 L,"3 mg/kg, Day 19, left paw, individual animals",2.51 mL and 2.85 mL and 2.75 mL and 2.50 mL and 2.71 mL and 2.60 mL and 2.43 mL and 2.79 mL
same,Average animal paw volume percent change,"3 mg/kg, Day 19, right hind paw (R)",94.99%
same,Animal paw volume Day 19 R,"3 mg/kg, Day 19, right paw, individual animals",2.21 mL and 2.91 mL and 2.63 mL and 2.37 mL and 2.68 mL and 2.80 mL and 2.49 mL and 2.76 mL
same,Average animal paw volume percent change,"3 mg/kg, Day 21, left hind paw (L)",100.54%
same,Animal paw volume Day 21 L,"3 mg/kg, Day 21, left paw, individual animals",2.49 mL and 3.01 mL and 2.76 mL and 2.51 mL and 2.68 mL and 2.64 mL and 2.41 mL and 2.87 mL
same,Average animal paw volume percent change,"3 mg/kg, Day 21, right hind paw (R)",94.48%
same,Animal paw volume Day 21 R,"3 mg/kg, Day 21, right paw, individual animals",2.23 mL and 2.91 mL and 2.61 mL and 2.34 mL and 2.69 mL and 2.77 mL (2×) and 2.47 mL
same,average overall clinical score at plateau,[5],7
same,day on which paw volume increased,[5],~14 days
same,effect on hind paw volume,[5],Paw volume increases were delayed; also recorded: more effective at controlling paw volume
same,paw volume relative to CIA + vehicle (group 2),[5],"significantly decreased relative to group 2 on days 19 and 21 (both paws, p<0.05)"
same,animals exhibiting signs of disease,[6],3/8
same,animals with a score of 2 in one hind limb,[6],one animal
same,animals exhibiting disease,"10 mg/kg twice daily P.O. (group 6), day 13",4/8
same,animals with a score of 3 in one or more hind limbs,[7],3/8
same,animals with a score of 4 in a hind limb,[7],1/8
same,animals exhibiting disease,"10 mg/kg twice daily P.O. (group 6), day 15",7/8
same,animals with scores of 4 in one or more hind limbs,"10 mg/kg twice daily P.O. (group 6), day 18",4/8
same,animals exhibiting disease,"10 mg/kg twice daily P.O. (group 6), day 19",all animals
